Measured values reported in BindingDB's records for doi:10.1016/S0960-894X(01)00040-3 (Glaxosmithkline, 2001).

These compounds were tested against Tyrosine--tRNA ligase (Staphylococcus aureus) (assay: Inhibitory activity against Staphylococcus aureus tyrosyl tRNA synthetase (YRS) using aminoacylation assay).

SMILES | IC50 [nM]
CCCCOC(=O)C(NC(=O)[C@@H](N)Cc1ccc(O)cc1)[C@H]1C[C@@H](O)[C@@H](O)[C@@H](C)O1 (stereo partly drawn) [[2-Amino-3-((S)-4-hydroxy-phenyl)-propionylamino]-((2R,4R,5R,6R)-4,5-dihydroxy-6-methyl-tetrahydro-pyran-2-yl)-acetic acid butyl ester] | 3.6
N[C@@H](Cc1ccc(O)cc1)C(=O)NC(C(=O)O)[C@@H]1O[C@H](CO)[C@H](O)[C@H](O)[C@H]1O (stereo partly drawn) [[2-Amino-3-((S)-4-hydroxy-phenyl)-propionylamino]-((2S,3R,4R,5R,6R)-3,4,5-trihydroxy-6-hydroxymethyl-tetrahydro-pyran-2-yl)-acetic acid] | 190
CCCCOC(=O)[C@@H](NC(=O)[C@@H](N)Cc1ccc(O)cc1)[C@@H]1O[C@H](C)[C@H](O)[C@H](O)[C@H]1O [[2-Amino-3-((S)-4-hydroxy-phenyl)-propionylamino]-((2S,3R,4S,5R,6R)-3,4,5-trihydroxy-6-methyl-tetrahydro-pyran-2-yl)-acetic acid (S)-butyl ester] | 0.8
